We go through 31 substances from ChEMBL document CHEMBL4665541, “Search for new therapeutic options for the uncommon pathogen Mycobacterium chimaera: an open drug discovery approach” (Lancet Microbe, 2021).

Holding throughout (type): functional, organism-based
Common to all, as to parameters: conc 20 uM

Assay [1] relates to Mycobacteroides abscessus. In words: (§1) Inhibition of mycobacterial growth using the resazurin microtitre cell viability assay (REMA), compounds at final concentration of 20 µM (2% v/v DMSO). Hits were classed as compounds that inhibited bacterial growth by 70% or more compared to drug-free controls. The note with it: ATCC19977. (In general: The colour change of resazurin is a common sign of viable cells or microbes.)

The subject of assay [2] is Mycobacterium intracellulare subsp. chimaera. The description is as §1. The conditions noted are these: NCTC13781.
For assay [3], the system named is Mycobacterium tuberculosis. Described as §1. The conditions noted are these: H37Rv.

Regarding MMV228911, the Survival in assay [1] was 97.2%; in assay [2], 89.5%; in assay [3] it was 114%.

For the substance MMV393144, the Survival in assay [1] is 103%; in assay [2], 85.6%; in assay [3], 92.6%.

With MMV637229, the figures for the Survival in assay [1], in assay [2] and in assay [3] were 112%, 96.4% and 87%, respectively.

As to MMV000023, the figures for the Survival in assay [1], in assay [2] and in assay [3] were 109%, 92.8% and 84.7%, respectively.

Take MMV663250: the Survival in assay [1] was 104%; in assay [2], 116%; in assay [3], 95.4%.

MMV007638: the Survival in assay [1] is 123%; in assay [2] it was 113%; in assay [3], 100%.

For MMV688891, the Survival in assay [1] is 109%; in assay [2], 113%; in assay [3] it was 101%.

On to MMV676191, for which the Survival was 99.5% in assay [1], 105% in assay [2] and 100% in assay [3].

Consider MMV026356, for which the results for the Survival in assay [1], in assay [2] and in assay [3] were 107%, 89.7% and 101%, respectively.

MMV676063: the Survival in assay [1] was 105%; in assay [2] it was 112%; in assay [3] it was 91%.

As to MMV026490, the Survival in assay [1] was 115%; in assay [2], 104%; in assay [3] it was 88.9%.

Regarding MMV026468, the results for the Survival in assay [1], in assay [2] and in assay [3] were 105%, 96.1% and 95.9%, respectively.

As for MMV687706, the figures for the Survival in assay [1], in assay [2] and in assay [3] were 108%, 92.7% and 99.8%, respectively.

As for MMV676358, the Survival is 114% in assay [1], 92.3% in assay [2] and 98.4% in assay [3].

Turning to MMV676431, the Survival in assay [1] was 115%; in assay [2] it was 98.6%; in assay [3], 81.5%.

Turning to MMV102872, the Survival is 114% in assay [1], 97.7% in assay [2] and 18.3% in assay [3].

As to MMV026550, the values for the Survival in assay [1], in assay [2] and in assay [3] were 111%, 98.7% and 88.2%, respectively.

For the substance MMV687798, the values for the Survival in assay [1], in assay [2] and in assay [3] were 11.5%, 1.47% and 7.23%, respectively.

For MMV676602, the Survival in assay [1] is 95.5%; in assay [2], 111%; in assay [3], 105%.

MMV676439: the results for the Survival in assay [1], in assay [2] and in assay [3] were 114%, 34.7% and 91.7%, respectively.

Take MMV690102: the Survival in assay [1] is 113%; in assay [2], 111%; in assay [3] it was 106%.

MMV019551: the figures for the Survival in assay [1], in assay [2] and in assay [3] were 103%, 90.1% and 77.8%, respectively.

Consider MMV671636, for which the Survival in assay [1] is 112%; in assay [2], 85.9%; in assay [3] it was 95.9%.

For the substance MMV688274, the values for the Survival in assay [1], in assay [2] and in assay [3] were 113%, 112% and 86%, respectively.

As to MMV676600, the Survival was 125% in assay [1], 90.1% in assay [2] and 91.1% in assay [3].

MMV001625: the Survival is 121% in assay [1], 101% in assay [2] and 90.5% in assay [3].

On to MMV688942, for which the figures for the Survival in assay [1], in assay [2] and in assay [3] were 112%, 98.6% and 85.1%, respectively.

As for MMV676536, the Survival in assay [1] is 119%; in assay [2], 101%; in assay [3], 90.9%.

On to MMV676520, for which the figures for the Survival in assay [1], in assay [2] and in assay [3] were 100%, 85.8% and 43.4%, respectively.

Take MMV687749: the values for the Survival in assay [1], in assay [2] and in assay [3] were 113%, 96.9% and 73.3%, respectively.

For the substance MMV687189, the results for the Survival in assay [1], in assay [2] and in assay [3] were 104%, 98.5% and 58.1%, respectively.
